Measured values reported in ChEMBL document CHEMBL1138020, “Novel fibrinogen receptor antagonists. RGDF mimetics, derivatives of 4-(isoindoline-5-yl)amino-4-oxobutyric acid” (Bioorg Med Chem Lett, 2004).

What was measured:
[1] = target: T1, Integrin alpha-IIb/beta-3 (Homo sapiens, UniProt P05106+P08514); assay: In vitro binding affinity for FITC-labeled fibrinogen binding to alphaIIb-beta3 receptor of human platelets
[2] = target: T1, Integrin alpha-IIb/beta-3; assay: In vitro inhibition of FITC-labeled fibrinogen binding to alphaIIb-beta3 receptor of human platelets
[3] = In vitro inhibition of Collagen-induced platelet aggregation in canine platelet rich plasma

T1 sequence (P05106 27-788 limits assumed): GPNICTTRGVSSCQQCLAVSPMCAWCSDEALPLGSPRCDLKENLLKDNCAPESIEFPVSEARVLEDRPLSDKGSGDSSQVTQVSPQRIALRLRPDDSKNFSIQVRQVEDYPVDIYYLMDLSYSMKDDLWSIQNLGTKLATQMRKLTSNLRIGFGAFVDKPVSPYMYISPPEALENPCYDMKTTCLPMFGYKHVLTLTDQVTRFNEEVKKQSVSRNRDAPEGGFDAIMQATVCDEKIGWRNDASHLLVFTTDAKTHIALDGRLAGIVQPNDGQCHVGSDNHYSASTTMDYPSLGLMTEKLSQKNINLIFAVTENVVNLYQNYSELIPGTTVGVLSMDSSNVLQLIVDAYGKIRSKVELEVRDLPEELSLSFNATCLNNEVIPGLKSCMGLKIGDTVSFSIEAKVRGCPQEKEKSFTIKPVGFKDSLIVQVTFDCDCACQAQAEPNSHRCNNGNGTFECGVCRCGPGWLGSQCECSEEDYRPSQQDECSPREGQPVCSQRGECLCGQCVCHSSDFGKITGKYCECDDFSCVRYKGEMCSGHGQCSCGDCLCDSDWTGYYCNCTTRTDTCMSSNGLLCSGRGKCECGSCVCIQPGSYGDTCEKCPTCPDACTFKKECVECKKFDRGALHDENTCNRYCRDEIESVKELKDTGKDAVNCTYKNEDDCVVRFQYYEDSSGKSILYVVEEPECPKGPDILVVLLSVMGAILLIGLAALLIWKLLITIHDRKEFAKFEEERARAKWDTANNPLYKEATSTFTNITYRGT
T1 sequence (P08514 32-887 limits assumed): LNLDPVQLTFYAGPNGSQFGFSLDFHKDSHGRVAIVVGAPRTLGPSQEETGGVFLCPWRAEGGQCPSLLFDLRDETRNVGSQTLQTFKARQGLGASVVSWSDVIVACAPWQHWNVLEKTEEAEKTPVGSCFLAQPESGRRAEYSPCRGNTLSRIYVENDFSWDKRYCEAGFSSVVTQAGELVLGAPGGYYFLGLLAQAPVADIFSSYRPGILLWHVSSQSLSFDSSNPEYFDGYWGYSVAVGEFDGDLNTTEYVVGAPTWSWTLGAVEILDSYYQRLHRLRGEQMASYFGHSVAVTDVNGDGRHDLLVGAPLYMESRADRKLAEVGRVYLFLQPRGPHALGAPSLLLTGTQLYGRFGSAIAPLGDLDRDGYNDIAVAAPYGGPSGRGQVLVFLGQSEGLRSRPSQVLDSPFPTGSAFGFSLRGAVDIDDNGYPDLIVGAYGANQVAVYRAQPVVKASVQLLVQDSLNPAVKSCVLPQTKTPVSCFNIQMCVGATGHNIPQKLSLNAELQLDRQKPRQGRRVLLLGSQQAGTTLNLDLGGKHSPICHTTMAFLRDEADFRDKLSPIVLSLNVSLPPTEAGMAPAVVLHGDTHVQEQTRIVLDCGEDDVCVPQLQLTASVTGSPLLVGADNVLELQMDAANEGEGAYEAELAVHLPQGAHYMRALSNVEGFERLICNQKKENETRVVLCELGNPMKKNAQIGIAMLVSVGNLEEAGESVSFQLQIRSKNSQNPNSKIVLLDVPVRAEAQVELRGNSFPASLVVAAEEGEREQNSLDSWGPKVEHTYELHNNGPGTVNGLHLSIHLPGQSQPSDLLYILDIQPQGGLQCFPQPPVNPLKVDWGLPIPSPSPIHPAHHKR
T1 sequence (P08514 891-1039 limits assumed): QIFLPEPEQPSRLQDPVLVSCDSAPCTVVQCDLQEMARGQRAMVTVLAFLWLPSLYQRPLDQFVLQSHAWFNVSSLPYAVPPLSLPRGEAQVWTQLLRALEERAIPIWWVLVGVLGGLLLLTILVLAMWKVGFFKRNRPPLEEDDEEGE

| Structure (SMILES) | Ki [1] | IC50 [2] | IC50 [3] |
| --- | --- | --- | --- |
| O=C(O)CC(NC(=O)CCC(=O)Nc1ccc2c(c1)CNC2)c1ccccc1 (stereo unspecified) | 4.2 nM | 8.3 nM |  |
| N=C(N)c1ccc(NC(=O)CCC(=O)NCCC(=O)O)cc1 |  |  | 1090 nM |
| O=C(O)CCNC(=O)CCC(=O)Nc1ccc2c(c1)CNC2 | 7.1 nM | 10 nM |  |
| N=C(N)c1ccc(NC(=O)CCC(=O)NC(CC(=O)O)c2ccccc2)cc1 (stereo unspecified) |  |  | 290 nM |
